Entries after “also recorded” stand apart in the source; their conditions may differ.
How the values were obtained:
HUVEC [1] = test: HUVEC cell viability after irradiation (MTT / CellTiter 96); format: cell-based, human
Experimental: FIG. 11. Radioprotective activities of TSP1 and CD47 antibodies, a CD47 binding peptide from TSP1, and a CD47 morpholino. HUVEC were plated on 96-well plates in standard growth medium. Cells were treated with TSP1 (FIG. 11A) or CD47 (FIG. 11B) monoclonal antibodies (clone A6.1 or B6H12, respectively) and received the indicated doses of radiation 24 hours after addition of the antibodies. Cell (mitochondrial) viability was measured 48 hours post irradiation using an MTT assay. Cells were treated using peptide 7N3 (FIG. 11C) and control peptide 604 (FIG. 11D), subjected to the same experimental conditions, and assayed via MTT. […] Experiments were repeated 3 times and results presented as the mean±SD.
(§1) FIG. 12. Peptides 7N3 and C6d are radioprotective to HUVEC in culture. Human umbilical vein endothelial cells (HUVEC) grown in EGM medium in 96-well plates were treated with graded doses of a peptide agent, as indicated. One hour later, cells were exposed to a single dose of gamma radiation (0, 10, 20, 30, and 40 Gray) and allowed to incubate 72 hours at 37° C. Cell viability was determined with the CellTiter 96 AQueous One Solution Cell Proliferation Assay.
Cell Viability Assay. HUVEC were plated at a density of 5000 cells/well in 96 well plates (Nunc), and were treated 24 hours later with either the indicated doses of a CD47 antibody (B6H12), a TSP1 antibody (A6.1), the CD47-binding peptide 7N3, or control peptide 604. One hour later the cells were exposed to a single dose of gamma radiation (0, 10, 20, 30, and 40 Gy) and allowed to incubate another 72 hours at 37° C. Experiments done with B16E10 melanoma cells in Example 4 were done in a similar manner treating either 1 hour prior to a single dose of radiation (10 Gy) with peptide 7N3 or 48 hours prior with CD47 morpholino. Cell viability was determined using the CellTiter 96 Aqueous One Solution cell proliferation assay (Promega, Madison, Wis.) as per the manufacturer's instructions and absorbance at 490 nm was determined using an MR580 Microelisa AutoReader (Dynatech, Alexandria, Va.). The same assay was performed on HUVEC using either the CD47 or CD36 morpholino, but 48 hours were allowed to pass prior to radiation (0 or 40 Gy) to allow for suppression of the target proteins. Similarly, control experiments were performed using the nitric oxide synthase (NOS) inhibitor L-NAME, a membrane permeable cGMP analogue, 8-Bromo cGMP, or the NO donor DETA/NO.
as §1, with “In an additional experiment to test the effect of” for “FIG. 12. Peptides 7N3 and C6d are”, “peptides, human” for “to HUVEC in culture. Human”

HUVEC [2] = test: HUVEC proliferation post-radiation (BrdU incorporation); format: cell-based, human; conditions: treated 48 hours before 10 Gy, over 1 week (FIG. 14)
Experimental: FIG. 14. TSP1 and CD47 antibodies or antisense suppression of CD47 maintain proliferation of irradiated HUVEC. HUVEC were plated in 96-well plates in growth medium and treated with CD47 morpholino (FIG. 14A; *p<0.05, #p<0.01) TSP1, or CD47 antibodies (FIG. 14B; *p<0.05, #p<0.01) and exposed to 10 Gy irradiation 48 hours later. Cell proliferation at the indicated times post-radiation was determined by intracellular BrdU incorporation. Experiments were repeated 3 times, and results presented as the mean±SD.
FIG. 15. HUVEC protected by radioprotective agents are both viable and proliferate at a better rate than untreated cells in culture. Proliferation was assessed by quantifying incorporation of bromodeoxyuridine (BrdU) into newly synthesized DNA using a BrdU Cell Proliferation Assay. HUVEC were seeded into 96 well plates for 24 hours at 37° C., then treated with either antibody A6.1 or B6H12 or peptide 7N3. The treated cells were irradiated at 40 Gy 1 hour later. Control and irradiated plates were assayed for BrdU uptake over 96 hours post-radiation. The assay was performed according to the manufacturer's protocol, and the plates were read at 420 nm.
Cell proliferation assay: Proliferation was assessed by quantifying incorporation of bromodeoxyuridine (BrdU) into newly synthesized DNA using a BrdU Cell Proliferation Assay (Calbiochem, La Jolla, Calif.). Primary murine wild type, TSP1, TSP2, and CD47 null lung endothelial cells were seeded into 96 well plates at 5×10^4 cells/well density. After 24 hours incubation at 37° C. treatment groups were irradiated at 40 Gy. Control and irradiated plates were assayed for BrdU uptake over 24 hours starting at 48 to 168 hours post-radiation. The assay was performed according to the manufacturer's protocol, and the plates were read at 420 nm.
Proliferative capacities were also determined in endothelial cells exposed to high doses of radiation of 40 Gy. […] The assay was performed according to the manufacturer's protocol, and the plates were read at 420 nm.

## CGTCACAGGCAGGACCCACTGCCCA (all phosphorodiamidate morpholino (PMO)) [CD47 morpholino, CD47 targeting morpholino oligonucleotide]
HUVEC [1]; co-incubation of L-NAME and CD47 morpholino ± radiation (FIG. 22C)
  cell survival of irradiated HUVEC with L-NAME co-incubation: enhancing cell survival
HUVEC [1]; morpholino 48 hours before radiation (FIG. 11E, F)
  cell viability post radiation after morpholino pretreatment: granted protection against cell death; also recorded: resistant to radiation-driven cell death
HUVEC [2]
  proliferation (BrdU incorporation / DNA synthesis) after 10 Gy: maintained proliferation
